From patent US20100113406A1, “USE OF GLUCOCORTICOIDS FOR TREATMENT OF CONGESTIVE HEART FAILURE” (priority 2007, published 2010)
Entries after “also recorded” stand apart in the source; their conditions may differ.

What was measured:
[1] = system: collagens I and III and BNP mRNA; experiment: Left ventricular gene expression levels of collagens I and III and BNP (real-time PCR) in SHHF rats; type: in vivo; settings: SHHF rat left ventricle, 4 weeks treatment; FIG. 13
Experimental: Left ventricular gene expression levels of collagens I and III and BNP were determined as follows. mRNA expression analyses were performed as follows:
Heart samples (i.e. basal side of the hearts) were shock frozen in liquid nitrogen for RNA. Total RNA from the LV was isolated using the Ultraspec II kit (Bioteckx), according to the instructions of the manufacturer. After integrity checking and determining RNA concentrations with the nanodrop procedure, the RNA concentrations were adjusted to 100 ng/μl For first strand cDNA synthesis, 100 ng heat denatured RNA and 200 pmol random hexamer primers (Pharmacia, Uppsala Sweden) were transferred to a Ready-To-Go first strand bead (Pharmacia, Uppsala Sweden) tube and the volume adjusted to 33 μl.
The reaction (1 hour at 37° C.) was stopped by heat inactivating (2 minutes at 94° C.) the transcriptase and samples were cooled to 4° C. For conducting the real-time PCR, […] of the cDNA templates (100× diluted) were added to SYBR green master mix (Eurogentec) and primers (15 μM final concentration each) yielding a total volume of […], following the instructions of the Eurogentec.
PCR-primers (Sigma Genosys) were selected based on published primers/cDNA sequences and had the following sequences (5′→3′): […]
yielding products with fragment lengths of 253, 147 and 86 base pairs for PGK 1 (phosphoglycerate kinase 1), BNP (brain natriuretic peptide) and collagens I and -III respectively.
Samples were denatured and incubated for 40 cycles at 60° C. (120 seconds; annealing and synthesis) and 95° C. (15 seconds), during which fluorescence was continuously monitored (Biorad thermocycler).
Based on the linear part of the curves, initial gene concentrations were derived by comparing signals with standard curves. Validity of the procedure was checked by constructing melting curves for every sample.
Calculated gene expression levels were standardized for the house keeping gene PGK1 and were normalized versus RNA obtained from untreated control animals. Data are therefore expressed as arbitrary units (means±SEM).

[2] = Pharmacokinetic study in normal Wistar rats (IPC vs IV infusion, corticosterone levels by HPLC); type: in vivo, Wistar rat; settings: local (intrapericardial) administration versus systemic (IV) administration of the same amount of drug; 4 weeks infusion; FIG. 2
Experimental: (§1) Normal Wistar rats were used for this Example. Animals were housed at the animal facilities of the University of Maastricht with a 12-hour light/dark cycle and had free access to standard rat chow and tap-water. Experiments were performed according to institutional guidelines and conformed to the Guide for the Care and Use of Laboratory Animals published by the US National Institutes of Health (NIH Publication No. 85-23, revised 1996).
The rats underwent a surgical procedure to install pericardial and intravenous catheters and minipumps. Construction of the pericardial catheters and the procedure to install the catheter into the pericardial space were conducted as described by Hermans, which has been discussed above.
Briefly, the pericardial catheters consisted of silicone tubing (internal diameter: 0.51 mm; external diameter 0.94 mm, Degania Silicone, Degania Bet, Israel), which, by assembling its endings with a polyolefin shrinking sleeve (Farnell Compounds, Maarssen, the Netherlands), was shaped as a loop (length appr. 2 cm, width appr. 1 cm). Silicone glue was applied in the middle of the loop, to create two separate chambers (one used for fluid injection, the second closed, i.e. connected to a closed ending). The fluid infusion chamber was provided with holes by use of a 25-gauge perforator. […]

[3] = system: spontaneous hypertensive heart failure (SHHF) rats; experiment: Left ventricular pressures, contractility, relaxation, arterial pressure and heart rate in SHHF rat model of CHF; type: in vivo
Experimental: as §1, with “Forty to forty-two week old male lean spontaneous hypertensive heart failure (SHHF)” for “Normal Wistar”, “rats (originally obtained from Charles River, Boston, USA)” for “rats”, “used.” for “used for this Example.”
The rats underwent a surgical procedure to install pericardial and intravenous catheters and minipumps according to the procedure of Example 1.
Animals were randomly assigned to treatment groups (n=9 per group). Total treatment time was 4 weeks for all animals. The groups were as follows: • (1) corticosterone high dose IPC (60 micrograms/day) • (2) corticosterone low dose IPC (6 micrograms/day) • (3) corticosterone high dose IV (60 micrograms/day) • (4) corticosterone low dose IV (6 micrograms/day) • (5) vehicle
Where IPC—intrapericardial dosing, and IV=intravenous dosing.
During treatment, Group 5 (vehicle) rats were continuously infused with vehicle (40% polyethylene glycol in water; 60 μl/day) via both catheters. Experimental groups obtained continuous infusions as follows: • Group (1)—a high dose (60 ug/day) of corticosterone hemisuccinate intrapericardially and vehicle intravenously; • Group (2)—a low dose (6 ug/day) of corticosterone hemisuccinate intrapericardially and vehicle intravenously; • Group (3)—a high dose (60 ug/day) of corticosterone hemisuccinate intravenously and vehicle intrapericardially; and • Group (4)—a low dose (6 ug/day) of corticosterone hemisuccinate intravenously and vehicle intrapericardially. • Corticosterone hemisuccinate was purchased from Sigma (St Louis, Mo.)
Left ventricular pressures, contractility and relaxation were evaluated at the end of the study as described in B J Janssen et al., “Effects of anesthetics on systemic hemodynamics in mice.” Am J Physiol Heart Circ Physiol 287:H1618-1624 (2004). For this purpose rats were anaesthetized with pentobarbital (50 mg/kg i.p., Sigma). A high-fidelity catheter tip micromanometer (Mikro-tip 1.4F; SPR-671, Millar Instruments, Houston, Tex., USA) was inserted into the left ventricular cavity through the right carotid artery. Before the tip was inserted into the left ventricle, mean arterial pressures and heart rates were briefly recorded in the carotid artery. Left ventricular pressure was measured and sampled at a rate of 2 kHz under an I.V. ramp infusion of dobutamine up to 5 ng/gBW/min (Sigma) using a microinjection pump (model 200 Series, KD Scientific, Boston, Mass., USA). Maximal positive (+dp/dt/p) and negative (−dp/dt/p) pressure development were determined. At the end of the experiment blood and organs were harvested, weighed and rapidly processed and frozen for future analyses.

[4] = system: spontaneous hypertensive heart failure (SHHF) rats; experiment: Left ventricular collagen by Picro Sirius Red staining in SHHF rats; type: in vivo, rat; settings: 6 or 60 micrograms/day IPC or IV, 4 weeks, FIG. 12
Experimental: as §1, with “Forty to forty-two week old male lean spontaneous hypertensive heart failure (SHHF)” for “Normal Wistar”, “rats (originally obtained from Charles River, Boston, USA)” for “rats”, “used.” for “used for this Example.”
(§2) Animals were randomly assigned to treatment groups (n=9 per group). Total treatment time was 4 weeks for all animals. […]
Collagen volume fraction of each section was determined using a computer image analyzing system (Leica Q-Win). Interstitial collagen density of heart sections was evaluated in the left ventricle (LV) subepicardial myocardium regions. Ten fields from each region (magnification ×20) were randomly selected for analyses and the area stained was calculated as percentage of the total area within a field.
Perivascular collagen was expressed as ratio of the area of the collagen surrounding the vessel divided to the area of the coronary arteries media in order to correct for differences in vessel size (magnification ×20 or ×40). We calculated an average value for interstitial and perivascular fibrosis or each animal. […]

[5] = system: spontaneous hypertensive heart failure (SHHF) rats; experiment: Transthoracic echocardiography in SHHF rats; type: in vivo, rat; settings: treatment end versus treatment start, FIG. 4
Experimental: as §1, with “Forty to forty-two week old male lean spontaneous hypertensive heart failure (SHHF)” for “Normal Wistar”, “rats (originally obtained from Charles River, Boston, USA)” for “rats”, “used.” for “used for this Example.”
as §2
At the start and end of the treatment, transthoracic echocardiography was performed under isoflurane anesthesia in part of the rats (5-7 per group) using the SONOS 5500 echocardiographic system equipped with a 15-MHz linear-array transducer (Philips Medical Systems Corp., Netherlands). […] The 2-dimensional parasternal long- and short-axis view of the left ventricle and the parasternal short axis M-mode tracings were recorded.
Measurements and calculations performed are the following: percent LV fractional shortening (FS) was calculated as follows: […], where LVIDd and LVIDs are end-diastolic and end-systolic left ventricle internal dimensions, respectively. […]

## C[C@]12C[C@H](O)[C@H]3[C@@H](CCC4=CC(=O)CC[C@@]43C)[C@@H]1CC[C@@H]2C(=O)CO [corticosterone]
[1]
  mRNA expression of B-type natriuretic peptide (BNP): reduces
  mRNA expression of Type I collagen: reduces
  mRNA expression of Type III collagen: reduces
[2]
  corticosterone concentration in rat heart tissue: higher concentration
[3]; 6 or 60 micrograms/day IPC or IV, 4 weeks
  cardiac filling rate: improved
[3]; 6 or 60 micrograms/day IPC or IV, 4 weeks, FIG. 8
  left ventricular end diastolic pressure: improved; also recorded: positively affects
[3]; 6 or 60 micrograms/day IPC or IV, 4 weeks, FIG. 10
  left ventricular contractility: improved; also recorded: positively affects
[3]; 6 or 60 micrograms/day IPC or IV, 4 weeks, FIG. 11
  left ventricular relaxation: positively affects
[3]; right carotid artery, 4 weeks treatment, FIG. 5
  heart rate: no differences between treatments; also recorded: not affecting
[3]; right carotid artery, 4 weeks treatment, FIG. 6
  mean arterial pressure (MAP) / blood pressure: no differences between treatments; also recorded: not affecting
[4]
  left ventricular epicardial collagen area: improved; also recorded: positively affects
[5]
  echocardiographic examinations (left ventricular dimensions or performance parameters): no differences between treatments
